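In this assay, cells in 96-well plates receive the compound at five concentrations for 48 hours. Endpoints are linearly interpolated between the surrounding concentrations. Here, GI50 denotes the concentration required for 50% inhibition of growth. The concentration for full growth arrest is given as TGI.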
Legend:
Experiment in all cases: NCI-60 cell line screen, 48 h
HOP-18 NSCLC = test system: HOP-18 NSCLC
MOLT-4 leukemia = test system: MOLT-4 leukemia
OVCAR-3 ovarian = test system: OVCAR-3 ovarian
NCI-H522 lung = test system: NCI-H522 lung
A498 renal = test system: A498 renal
SF-295 CNS = test system: SF-295 CNS
SR leukemia = test system: SR leukemia
CAKI-1 renal = test system: CAKI-1 renal
SNB-78 CNS = test system: SNB-78 CNS
BT-549 breast = test system: BT-549 breast

SMILES	TGI (HOP-18 NSCLC) [µM]	TGI (MOLT-4 leukemia) [µM]	TGI (OVCAR-3 ovarian) [µM]	TGI (NCI-H522 lung) [µM]	TGI (A498 renal) [µM]	TGI (SF-295 CNS) [µM]	TGI (SR leukemia) [µM]	TGI (CAKI-1 renal) [µM]	TGI (SNB-78 CNS) [µM]	GI50 (CAKI-1 renal) [µM]	GI50 (HOP-18 NSCLC) [µM]	GI50 (MOLT-4 leukemia) [µM]	GI50 (OVCAR-3 ovarian) [µM]	GI50 (NCI-H522 lung) [µM]	GI50 (A498 renal) [µM]	GI50 (SF-295 CNS) [µM]	GI50 (SR leukemia) [µM]	GI50 (BT-549 breast) [µM]	TGI (BT-549 breast) [µM]
O=C1CC[C@@H](S(=O)(=O)c2ccccc2)[C@H](/C=C/c2ccccc2)O1	> 100	> 100	> 100	> 100	> 100	> 100	> 100	–	–	–	–	–	–	–	–	–	–	–	–
C=C1C2CCCC1C1(S(C)(=O)=O)CCCCC21O (centres undefined)	> 100	> 100	> 100	> 100	–	> 100	> 100	> 100	> 100	–	–	–	–	–	–	–	–	–	–
CN(C)CC1CCCC/C1=N\OC(=O)c1ccccc1 (centres undefined)	> 100	> 100	> 100	> 100	> 100	> 100	> 100	> 100	> 100	–	–	–	–	–	–	–	–	–	–
C=CCc1cc(OC)c(O)c(C(=O)/C=C/c2ccc(OC)c(OC)c2)c1	–	–	41.3	7.08	39.7	74.1	–	58.7	> 100	–	–	–	–	–	–	–	–	–	–
[pH]1p2[pH]p3p1p3[pH]2.c1cc[c]([Ge]([c]2ccccc2)[c]2ccccc2)cc1.c1cc[c]([Ge]([c]2ccccc2)[c]2ccccc2)cc1.c1cc[c]([Ge]([c]2ccccc2)[c]2ccccc2)cc1	29	> 100	23.4	17.8	30	42.9	80.2	44.8	–	20.6	14.3	16.3	10.9	4.46	15.8	21.2	12.8	–	–
O=C(Nc1ccc(Nc2ccc(NC(=O)c3ccccc3)c3c2C(=O)c2ccccc2C3=O)c2c1C(=O)c1ccccc1C2=O)c1ccccc1	> 100	> 100	> 100	> 100	> 100	–	> 100	> 100	> 100	–	–	–	–	–	–	–	–	–	–
COc1ccc(C(=O)C(c2ccc(OC)cc2)C2(O)C(=O)Nc3c(Cl)cc(Cl)cc32)cc1 (centres undefined)	44.8	36.2	49.9	35.2	–	39.9	–	49.6	57.7	–	–	–	–	–	–	–	–	–	–
COc1c(CC(C)=O)c2ccccc2n1C(C)=O	> 100	> 100	> 100	–	> 100	> 100	> 100	> 100	> 100	–	–	–	–	–	–	–	–	–	–
CS(=O)(=O)ON1C(=O)c2ccc(N)cc2C1=O	> 100	> 69.3	> 100	43.2	> 100	> 100	> 68.8	–	> 100	–	–	–	–	–	–	–	–	–	–
Cc1[nH]c2ccccc2c1/C=C/c1c(C)[nH]c2ccccc12	–	> 100	> 100	–	> 100	> 100	–	> 100	> 100	–	–	–	–	–	–	–	–	–	–
O=C1C=C(Nc2cc(Cl)ccc2Cl)c2ccccc2C1=O	70	–	63.7	–	52	79.3	–	75.5	> 100	–	–	–	–	–	–	–	–	–	–
COc1ccc(N=Nc2c(-c3ccccc3)nn(C(=O)CC(=O)Nc3ccc(OC)cc3)c2-c2ccccc2)cc1	> 100	> 100	> 100	> 100	> 100	> 100	–	> 100	> 100	–	–	–	–	–	–	–	–	–	–
Oc1ccc(I)c2cccnc12	47.7	> 100	> 100	7.2	> 100	30.1	14.8	–	> 100	–	–	–	–	–	–	–	–	–	–
NNC(=O)N/N=C(/CC1(O)C(=O)Nc2ccc(Br)cc21)c1ccccc1 (centres undefined)	–	44.2	> 100	46.6	–	> 100	87.8	> 100	> 100	–	–	–	–	–	–	–	–	–	–
CCNCCS(=O)(=O)NC[C@@]1(c2ccccc2)SC(NC(=O)C(C)(C)C)=NN1C(=O)C(C)(C)C	–	> 100	> 100	< 0.01	53.4	1.16	22.3	> 100	–	0.694	–	< 0.0139	< 0.01	< 0.01	< 0.01	< 0.01	< 0.01	0.357	> 100
O=C(NNC1=NS(=O)(=O)c2ccccc2N1c1ccccc1)c1cnccn1	–	> 100	> 100	> 100	> 100	> 100	> 100	> 100	–	> 100	–	> 100	> 100	> 100	> 100	> 100	> 100	> 100	> 100
CC(C)(Oc1cccc(N2CCC[C@@H](C(=O)N(Cc3ccc(-c4cn[nH]c4)cc3)C3CC3)C2)c1)C(=O)N1CCNCC1	–	55.8	26	26	30.1	26	28.6	21.9	–	8.11	–	12.1	12.4	12.3	16	12.5	7.87	13.3	26.6
CN(C)Cc1ccc(O)c(CN(C)C)n1	–	> 100	> 100	> 100	> 100	> 100	> 100	> 100	–	–	–	–	–	–	–	–	–	–	> 100
COC12OCCN(C)C1=CC(=O)C1N=NCC12 (centres undefined)	> 100	> 100	> 100	> 100	> 100	> 100	–	> 100	> 100	–	–	–	–	–	–	–	–	–	–
Nc1nc2c(ncn2C2OC(CO)C(O)C2O)c(=O)o1 (centres undefined)	> 100	–	> 100	> 100	> 100	> 100	> 100	> 100	> 100	–	–	–	–	–	–	–	–	–	–
CCCCN(CCCC)CC(C(=O)Nc1ccc([N+](=O)[O-])cc1[N+](=O)[O-])/C(C)=N\NC(=O)c1ccncc1 (centres undefined)	–	> 100	> 100	> 100	> 100	> 100	–	> 100	> 100	–	–	–	–	–	–	–	–	–	–
C/C(=C\CNc1ncnc2c1ncn2C1CCCCO1)COP(=O)(O)O (centres undefined)	> 100	> 100	> 100	> 100	–	> 100	> 100	> 100	> 100	–	–	–	–	–	–	–	–	–	–

— PubChem BioAssay (NCI)
